The assay deals with T1, human 11βHSD1 enzyme (Homo sapiens, UniProt P28845).
T1 construct: baculovirus expressed N terminal 6-His tagged full length human 11βHSD1 enzyme; 6-His (N); made in house
In words: 11βHSD1 cortisone to cortisol conversion, competitive HTRF assay. The format is biochemical. The settings on record: for inhibition at 30 µM: human 11-βHSD, test concentration of 30 μM of compound. The procedure, abridged:
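Enzyme was baculovirus-expressed, N-terminal 6-His-tagged full-length human 11βHSD1, purified on a copper chelate column. Compounds were added in buffer containing 1% DMSO at 10-fold final concentration.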
Background: TR-FRET usually uses a lanthanide donor and a delayed reading to cut background.

T1 sequence (P28845 whole entry): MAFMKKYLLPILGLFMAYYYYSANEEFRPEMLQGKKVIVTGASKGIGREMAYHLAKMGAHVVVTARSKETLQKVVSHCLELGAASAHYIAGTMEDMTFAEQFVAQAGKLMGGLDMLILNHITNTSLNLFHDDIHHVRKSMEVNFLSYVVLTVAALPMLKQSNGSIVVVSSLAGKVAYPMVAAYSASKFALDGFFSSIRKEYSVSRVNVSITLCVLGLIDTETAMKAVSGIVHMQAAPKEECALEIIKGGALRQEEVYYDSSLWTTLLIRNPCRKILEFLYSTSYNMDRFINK

As to `O=C(N[C@H]1C2CC3CC1C[C@@](O)(C3)C2)c1cnc(N2CC[S+]([O-])CC2)nc1C1CCCCC1` [Example 197, 4-Cyclohexyl-N-[(2r,5 s)-5-hydroxyadamantan-2-yl]-2-(1-oxidothiomorpholin-4-yl)pyrimidine-5-carboxamide], the inhibition (commonly the drop in the measured response relative to a control, in per cent) at 30 µM turned out to be 97.8%. Same read-out and setting: then `O=C(N[C@H]1C2CC3CC1C[C@@](O)(C3)C2)c1cnc(N2CCS(=O)(=O)CC2)nc1C1CCCCC1` [Example 198, 4-Cyclohexyl-2-(1,1-dioxidothiomorpholin-4-yl)-N-[(2r,5s)-5-hydroxyadamantan-2-yl]pyrimidine-5-carboxamide], with 94%; and `CN(C)c1ncc(C(=O)N[C@H]2C3CC4CC2C[C@@](O)(C4)C3)c(N(C)C)n1` [Example 199, 2,4-bis(dimethylamino)-N-[(2r,5s)-5-hydroxyadamantan-2-yl]pyrimidine-5-carboxamide], with 96.8%; and `O=C(N[C@H]1C2CC3CC1C[C@@](O)(C3)C2)c1cnc(N2CC(F)(F)C2)nc1N1CC(F)(F)C1` [Example 200, 2,4-bis(3,3-difluoroazetidin-1-yl)-N-[(2r,5s)-5-hydroxyadamantan-2-yl]pyrimidine-5-carboxamide], with 52.8%. Turning to `O=C(N[C@H]1C2CC3CC1C[C@@](O)(C3)C2)c1cnc(N2CCC2)nc1N1CCC1` [Example 201, 2,4-bis(azetidin-1-yl)-N-[(2r,5s)-5-hydroxyadamantan-2-yl]pyrimidine-5-carboxamide], the inhibition at 30 µM worked out at 95%.

In the case of `Cc1ncc(C(=O)N[C@H]2C3CC4CC2C[C@@](O)(C4)C3)c(OC(C)C)n1` [Example 202, N-[(2r,5s)-5-hydroxyadamantan-2-yl]-2-methyl-4-propan-2-yloxypyrimidine-5-carboxamide], the inhibition at 30 µM turned out to be 102%. Still for that read-out and setting: the figure for `Cc1ncc(C(=O)N[C@H]2C3CC4CC2C[C@@](O)(C4)C3)c(OC2CCC2)n1` [Example 203, 4-Cyclobutyloxy-N-[(2r,5 s)-5-hydroxyadamantan-2-yl]-2-methylpyrimidine-5-carboxamide] is 98.6%; for `Cc1ncc(C(=O)N[C@H]2C3CC4CC2C[C@@](O)(C4)C3)c(OC2CCCC2)n1` [Example 204, 4-Cyclopentyloxy-N-[(2r,5s)-5-hydroxyadamantan-2-yl]-2-methylpyrimidine-5-carboxamide] it is 106%. Turning to `COc1nc(N2C[C@@H](C)O[C@@H](C)C2)ncc1C(=O)N[C@H]1C2CC3CC1C[C@@](O)(C3)C2` [Example 205, 2-[(2R,6S)-2,6-Dimethylmorpholin-4-yl]-N-[(2r,5 s)-5-hydroxytricyclo[3.3.1.13.7]dec-2-yl]-4-methoxypyrimidine-5-carboxamide], the inhibition at 30 µM is 102%. The same measure, in the same setting: the figure for `COc1nc(NC2CC2)ncc1C(=O)N[C@H]1C2CC3CC1C[C@@](O)(C3)C2` [Example 206, 2-(cyclopropylamino)-N-[(2r,5s)-5-hydroxytricyclo[3.3.1.13,7]dec-2-yl]-4-methoxypyrimidine-5-carboxamide] is 105%. For the molecule `COc1nc(NC2CCC2)ncc1C(=O)N[C@H]1C2CC3CC1C[C@@](O)(C3)C2` [Example 207, 2-(cyclobutylamino)-N-[(2r,5s)-5-hydroxytricyclo[3.3.1.13,7]dec-2-yl]-4-methoxypyrimidine-5-carboxamide], the inhibition at 30 µM was 93%. On the same count and under the same terms, then `COc1nc(OC2CCC2)ncc1C(=O)N[C@H]1C2CC3CC1C[C@@](O)(C3)C2` [Example 208, 2-(cyclobutyloxy)-N-[(2r,5s)-5-hydroxytricyclo[3.3.1.13,7]dec-2-yl]-4-methoxypyrimidine-5-carboxamide], with 102%. With `CCOc1nc(N2C[C@@H](C)O[C@@H](C)C2)ncc1C(=O)N[C@H]1C2CC3CC1C[C@@](O)(C3)C2` [Example 209, 2-[(2S,6R)-2,6-dimethylmorpholin-4-yl]-4-ethoxy-N-[(2r,5s)-5-hydroxyadamantan-2-yl]pyrimidine-5-carboxamide], the inhibition at 30 µM came out at 99.4%.

Regarding `CCOc1nc(NC2CC2)ncc1C(=O)N[C@H]1C2CC3CC1C[C@@](O)(C3)C2` [Example 210, 2-(cyclopropylamino)-4-ethoxy-N-[(2r,5s)-5-hydroxytricyclo[3.3.1.13,7]dec-2-yl]pyrimidine-5-carboxamide], the inhibition at 30 µM was determined as 97.2%. Same read-out and setting: the figure for `CCOc1nc(NC2COC2)ncc1C(=O)N[C@H]1C2CC3CC1C[C@@](O)(C3)C2` [Example 211, 4-ethoxy-N-[(2r,5s)-5-hydroxytricyclo[3.3.1.13,7]dec-2-yl]-2-(oxetan-3-ylamino)pyrimidine-5-carboxamide] is 98.4%; for `CCOc1nc(NC2CCC2)ncc1C(=O)N[C@H]1C2CC3CC1C[C@@](O)(C3)C2` [Example 212, 2-(cyclobutylamino)-4-ethoxy-N-[(2r,5s)-5-hydroxytricyclo[3.3.1.13,7]dec-2-yl]pyrimidine-5-carboxamide] it is 105%.

Regarding `CCOc1nc(OC2CCC2)ncc1C(=O)N[C@H]1C2CC3CC1C[C@@](O)(C3)C2` [Example 213, 2-(cyclobutyloxy)-4-ethoxy-N-[(2r,5s)-5-hydroxytricyclo[3.3.1.13,7]dec-2-yl]pyrimidine-5-carboxamide], the inhibition at 30 µM stood at 107%. Same read-out and setting: the figure for `CC(C)Oc1nc(N2C[C@@H](C)O[C@@H](C)C2)ncc1C(=O)N[C@H]1C2CC3CC1C[C@@](O)(C3)C2` [Example 214, 2-[(2R,6S)-2,6-dimethylmorpholin-4-yl]-N-[(2r,5s)-5-hydroxytricyclo[3.3.1.13,7]dec-2-yl]-4-(1-methylethoxy)pyrimidine-5-carboxamide] is 103%; for `CC(C)Oc1nc(NC2CC2)ncc1C(=O)N[C@H]1C2CC3CC1C[C@@](O)(C3)C2` [Example 215, 2-(cyclopropylamino)-N-[(2r,5s)-5-hydroxytricyclo[3.3.1.13,7]dec-2-yl]-4-(1-methylethoxy)pyrimidine-5-carboxamide] it is 94.9%. Consider `CC(C)Oc1nc(NC2CCC2)ncc1C(=O)N[C@H]1C2CC3CC1C[C@@](O)(C3)C2` [Example 217, 2-(cyclobutylamino)-N-[(2r,5s)-5-hydroxytricyclo[3.3.1.13,7]dec-2-yl]-4-(1-methylethoxy)pyrimidine-5-carboxamide], for which the inhibition at 30 µM was determined as 94.2%.

Regarding `CC(C)Oc1nc(OC2CCC2)ncc1C(=O)N[C@H]1C2CC3CC1C[C@@](O)(C3)C2` [Example 218, 2-(cyclobutyloxy)-N-[(2r,5s)-5-hydroxytricyclo[3.3.1.13,7]dec-2-yl]-4-(1-methylethoxy)pyrimidine-5-carboxamide], the inhibition at 30 µM was found to be 96%. With `COCc1nc(N2C[C@@H](C)O[C@@H](C)C2)ncc1C(=O)N[C@H]1C2CC3CC1C[C@@](O)(C3)C2` [Example 219, 2-[(2S,6R)-2,6-Dimethylmorpholin-4-yl]-N-[(2r,5s)-5-hydroxyadamantan-2-yl]-4-(methoxymethyl)pyrimidine-5-carboxamide], the inhibition at 30 µM worked out at 98.6%. As for `O=C(N[C@H]1C2CC3CC1C[C@@](O)(C3)C2)c1cnc(N2CCOCC2)nc1N1CCOCC1` [compound 32], the inhibition at 30 µM worked out at 97%. Moreover, the IC50 (usually the concentration that inhibits the measured activity by half) (recombinant N terminal 6-His tagged full length human 11βHSD1, cortisone 160 nM, 25 minutes at 37° C.) was found to be 0.22 µM.
